{
  "source": "patent US20230115120A1",
  "about": "“COMPOSITIONS, METHODS AND USES OF COMBINATION TREATMENTS FOR BLOOD CANCERS” (University of New Brunswick, priority 2020, published 2023)",
  "key": {"myeloma cell line JJN3": {"test_system": "myeloma cell line JJN3", "test": "Cell growth inhibition (PrestoBlue) in myeloma cell line JJN3", "format": "cell-based, Human", "settings": "FIG. 3a", "description": "Cell Culture. Human myeloma cell lines JJN3 were purchased from ATCC, KMM-1 was procured from the Japanese Collection of Research Bioresources Cell Bank (JCBR, Japan). The MM1.R cell line was a kind gift from Dr. Jonathan Keats, Translational Genomics Research Institute (TGen, USA). JJN3 cells were grown in RPMI-1640 medium (Sigma Aldrich, USA) supplemented with 5% heat inactivated FBS (Gibco), 1% I-glutamine (Gibco), 5 mM HEPES, and 1% Penstrep (Sigma Aldrich, USA); KMM-1 cells in RPMI-1640 media supplemented with 10% FBS, 1% L-glutamine (Gibco) and 1% Penstrep; MM1.R cells in advanced RPMI-1640 medium with 4% FBS and 1% Glutamax, in a humidified 5% CO2 incubator at 37° C. Cell lines were tested regularly for mycoplasma and kept free of contamination. Lenalidomide, terameprocol (Sigma Aldrich, USA) and pomalidomide from Selleck chemicals were used.\nCell Growth Inhibition Studies. A 48-h cell growth inhibition assay was conducted using the PrestoBlue cell viability kit (Invitrogen, ON, Canada). Cells were plated at 10,000 cells/well in 96-well tissue culture plates. The effect of single inhibitor and inhibitor combination treatments were done using appropriate vehicle and medium (blank) controls. Cells were incubated at 37° C. in a 5% CO2 incubator for 48 h or 72 h depending on the chosen duration of the study. At the end of the treatment, cell growth inhibition was determined by the PrestoBlue assay. […] Cell growth was assessed fluorometrically at 37° C. using the BioTek Synergy H4 Hybrid Multi-Mode microplate reader (535 nm excitation; 615 nm emission) with Gen 2.06 analyses software. Fluorescence values were corrected for any background fluorescence of the medium and test fractions by subtracting fluorescence readings of the appropriate blanks from the mean fluorescence readings of the untreated control and test wells. The percentage inhibition of cell growth was then defined as 1−(mean test well fluorescence/mean control well fluorescence)×100."}, "[1]": {"test_system": "HDAC1, Sp1, IRF4, IKZF1 and c-MYC protein in human myeloma cell lines JJN3 and MMIR", "test": "Western blots of key protein targets in myeloma cell lines", "format": "cell-based", "settings": "1, 5, 10 and 25 uM, in comparison with panobinostat, FIG. 2a, 2b", "description": "Western/Immunoblotting Methods. Protein lysates were obtained from untreated and CAPE (2) analog-treated myeloma cells and the concentration of proteins was determined by the BCA method. Proteins were resolved in a 4-20% criterion gel followed by electrophoretic transfer to nitrocellulose membrane (Bio-Rad Laboratories Inc., Germany). Membranes were then blocked with 5% skimmed milk in tris-buffered saline-tween (TBS-T) for 1 h and then, after rapid TBS-T washes, incubated overnight at 4° C. with a primary antibody of interest. Goat polyclonal anti-IRF4, rabbit polyclonal anti-Ikaros (Santa Cruz Biotechnology, Santa Cruz, Calif.); mouse monoclonal anti-Caspase-8, rabbit anti-Caspase-3, cleaved Caspase-3, anti-Sp1 (Cell Signaling Technology, Whitby, ON), rabbit monoclonal anti-MYC and mouse monoclonal β-actin antibody (Abcam, Cambridge, Mass.) were the primary antibodies used for this study. Following this, the membrane was incubated with HRP conjugated secondary antibodies. Protein levels in immunoblots were detected with an Amersham™ ECL™ Prime western blotting detection kit (GE Healthcare, ON, Canada), the imaging was performed using the ChemiDoc™ MP imaging system (Bio-Rad Laboratories, USA) and densitometry analyses were done using the Image Lab 5.0 software."}, "[2]": {"test_system": "IKZF1, IKZF3, IRF4, MYC and HDAC1 gene expression in human myeloma cells (KMM-1)", "test": "RNA Seq gene expression profiling in KMM-1 myeloma cells", "format": "cell-based", "settings": "in comparison with untreated and lenalidomide (10 uM) treated conditions, FIG. 1", "description": "RNA from myeloma cells (treated and untreated) was isolated and checked for integrity using the Agilent Bioanalyzer 2100 system (Agilent Technologies, Santa Clara, Calif., USA) and quantified using a Qubit fluorometric assay (Thermo Fisher Scientific, USA). RNA Seq was carried out at the Genome Quebec, Montreal, Canada. […] The remaining steps of library preparation were done using the NEBNext Ultra II DNA Library Prep Kit for Illumina (New England BioLabs). Adapters and PCR primers were purchased from New England BioLabs. Libraries were quantified using the Quant-iT™ PicoGreen® dsDNA Assay Kit (Life Technologies) and the Kapa Illumina GA with Revised Primers-SYBR Fast Universal kit (Kapa Biosystems). Average size fragment was determined using a LabChip GX (PerkinElmer) instrument. All bioinformatics analyses were done by the Canadian Centre for Computational Genomics (C3G)-Montréal Node, Canada."}, "myeloma cell": {"test_system": "myeloma cell", "test": "Myeloma cell growth inhibition, combination treatments (FIG. 4, FIG. 5)", "format": "cell-based, Human", "description": "Cell Growth Inhibition Studies. A 48-h cell growth inhibition assay was conducted using the PrestoBlue cell viability kit (Invitrogen, ON, Canada). Cells were plated at 10,000 cells/well in 96-well tissue culture plates. The effect of single inhibitor and inhibitor combination treatments were done using appropriate vehicle and medium (blank) controls. Cells were incubated at 37° C. in a 5% CO2 incubator for 48 h or 72 h depending on the chosen duration of the study. At the end of the treatment, cell growth inhibition was determined by the PrestoBlue assay. In brief, 10% PrestoBlue reagent was added to untreated and treated cells in […] in each well and incubated at 37° C. for one and a half hours. Cell growth was assessed fluorometrically at 37° C. using the BioTek Synergy H4 Hybrid Multi-Mode microplate reader (535 nm excitation; 615 nm emission) with Gen 2.06 analyses software. Fluorescence values were corrected for any background fluorescence of the medium and test fractions by subtracting fluorescence readings of the appropriate blanks from the mean fluorescence readings of the untreated control and test wells. The percentage inhibition of cell growth was then defined as 1−(mean test well fluorescence/mean control well fluorescence)×100."}},
  "data": [
    {"smiles": "Cc1[nH]c2ccccc2c1CCNCc1ccc(/C=C/C(=O)NO)cc1", "note": "[panobinostat, reference compound]", "values": [
      {"measurement": "inhibition at 1 pM", "setting": "myeloma cell line JJN3; Homo sapiens, JJN-3, panobinostat alone, 0.001 nM", "result": "17 ± 3", "unit": "%"}
    ]},
    {"smiles": "O=C(/C=C/c1ccc(O)c(O)c1)OCCc1ccccc1", "note": "[CAPE, caffeic acid phenethyl ester]", "values": [
      {"measurement": "protein levels of HDAC1, Sp1, IRF4, IKZF1 and c-MYC", "setting": "[1]", "result": "lowered"},
      {"measurement": "gene expression of IKZF1, IKZF3, IRF4, MYC and HDAC1", "setting": "[2]; 50 uM", "result": "downregulated"}
    ]},
    {"smiles": "O=C(/C=C/c1ccc(O)c(O)c1)OCCCc1ccccc1", "note": "[GL8]", "values": [
      {"measurement": "gene expression of IKZF1, IKZF3, IRF4, MYC and HDAC1", "setting": "[2]; 25 uM", "result": "downregulated"},
      {"measurement": "gene expression of IKZF1, IKZF3, IRF4, MYC and HDAC1", "setting": "[2]; 50 uM", "result": "downregulated"}
    ]},
    {"smiles": "O=C(/C=C/c1cc(O)ccc1O)OCCCc1ccccc1", "note": "[As26]", "values": [
      {"measurement": "myeloma cell growth inhibition, combination versus single agents", "setting": "myeloma cell; Sp1 inhibitor Terameprocol (TMP) and As26 combination, FIG. 5", "result": "augmented myeloma cell growth inhibition"},
      {"measurement": "myeloma cell growth inhibition, combination versus single agents", "setting": "myeloma cell; Trichostatin A and IC 50 As26 combination treatment, FIG. 4", "result": "augmented myeloma cell growth inhibition"},
      {"measurement": "myeloma cell growth inhibition", "setting": "myeloma cell line JJN3; combination 2.5 μM As26 with 0.001 nM panobinostat", "result": 54.4, "unit": "%"},
      {"measurement": "myeloma cell growth inhibition", "setting": "myeloma cell line JJN3; combination 5 μM As26 with 0.001 nM panobinostat", "result": 69.8, "unit": "%"}
    ]}
  ]
}
